Results: patent publication US20230085307A1, “PYRIDAZINONE COMPOUND AND HERBICIDE” (NISSAN CHEMICAL CORPORATION, priority 2019, published 2023)

Columns and labels:
late watergrass = assay: Test Example 1: herbicidal activity, application before weed generation under submerged conditions (Table 16, symbol A); assay type: in vivo, late watergrass (Echinochloa oryzicola)
In short: (§1)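 Emulsion formulation, water-diluted to set dose, was put onto the flooded surface (4 cm depth, alluvial soil) the same day weeds were sown and 2.5-leaf rice transplanted. After 3 weeks at 25-30 °C under glass, each species was rated 0 (≤5% kill) to 5 (≥90% kill).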

Italian ryegrass [1] = assay: Test Example 5: herbicidal effect by foliage application, plastic box (Table 20, symbol K); assay type: in vivo, Italian ryegrass (Lolium multiflorum); settings: foliage application, 3 weeks after application
In short: (§2)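 Plants sown in sterilized diluvial soil and grown 14 days in a greenhouse at 25° C to 30° C, then sprayed on the foliage with the compound's emulsion diluted in water to a predetermined herbicide amount. Injury to weeds and crops scored three weeks after application on a visual rating scale.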

wild oat [2] = assay: Test Example 4: herbicidal effect by soil treatment (Table 19, symbol I); assay type: in vivo, wild oat (Avena fatua)
In short: (§3)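 Seeds were sown in sterilized diluvial soil and covered with about 1.5 cm of soil. An emulsion formulation diluted with water to a predetermined herbicide amount was sprayed evenly onto the soil surface. Plants grew in a greenhouse at 25° C. to 30° C., and the effect was scored three weeks after application using criteria from an earlier test.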

Chinese sprangletop = assay: Test Example 3: herbicidal effect by foliage application, Wagner pot (Table 18, symbol D); assay type: in vivo, chinese sprangletop (Leptochloa chinensis)
In short: (§4)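 Plants were sown in alluvial soil held under 0.1–0.5 cm standing water and grown 14 days in a greenhouse at 25–30 °C. An emulsifiable formulation, water-diluted to the set dose, was then sprayed onto the foliage, and effects were scored three weeks later using previously defined criteria.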

persian speedwell [3] = assay: Test Example 4: herbicidal effect by soil treatment (Table 19, symbol R); assay type: in vivo, Persian speedwell (Veronica persica)
In short: as §3

southern crabgrass [4] = assay: Test Example 4: herbicidal effect by soil treatment (Table 19, symbol F); assay type: in vivo, southern crabgrass (Digitaria ciliaris)
In short: as §3

velvetleaf [5] = assay: Test Example 5: herbicidal effect by foliage application, plastic box (Table 20, symbol M); assay type: in vivo, velvetleaf (Abutilon theophrasti); settings: foliage application, 3 weeks after application
In short: as §2

redroot pigweed = assay: Test Example 4: herbicidal effect by soil treatment (Table 19, symbol N); assay type: in vivo, redroot pigweed (Amaranthus retroflexus)
In short: as §3

green foxtail [6] = assay: Test Example 4: herbicidal effect by soil treatment (Table 19, symbol G); assay type: in vivo, green foxtail (Setaria viridis)
In short: as §3

green foxtail [7] = assay: Test Example 5: herbicidal effect by foliage application, plastic box (Table 20, symbol G); assay type: in vivo, green foxtail (Setaria viridis); settings: foliage application, 3 weeks after application
In short: as §2

rice flat sedge = assay: Test Example 3: herbicidal effect by foliage application, Wagner pot (Table 18, symbol E); assay type: in vivo, rice flat sedge (Cyperus iria)
In short: as §4

barnyard grass [8] = assay: Test Example 4: herbicidal effect by soil treatment (Table 19, symbol H); assay type: in vivo, barnyard grass (Echinochloa crus-galli)
In short: as §3

windgrass [9] = assay: Test Example 4: herbicidal effect by soil treatment (Table 19, symbol L); assay type: in vivo, windgrass (Apera spica-venti)
In short: as §3

southern crabgrass [10] = assay: Test Example 5: herbicidal effect by foliage application, plastic box (Table 20, symbol F); assay type: in vivo, southern crabgrass (Digitaria ciliaris); settings: foliage application, 3 weeks after application
In short: as §2

blackgrass [11] = assay: Test Example 4: herbicidal effect by soil treatment (Table 19, symbol J); assay type: in vivo, blackgrass (Alopecurus myosuroides)
In short: as §3

persian speedwell [12] = assay: Test Example 5: herbicidal effect by foliage application, plastic box (Table 20, symbol R); assay type: in vivo, Persian speedwell (Veronica persica); settings: foliage application, 3 weeks after application
In short: as §2

wild oat [13] = assay: Test Example 5: herbicidal effect by foliage application, plastic box (Table 20, symbol I); assay type: in vivo, wild oat (Avena fatua); settings: foliage application, 3 weeks after application
In short: as §2

oval-leafed pondweed = assay: Test Example 1: herbicidal activity, application before weed generation under submerged conditions (Table 16, symbol C); assay type: in vivo, oval-leafed pondweed (Monochoria vaginalis)
In short: as §1

barnyard grass [14] = assay: Test Example 3: herbicidal effect by foliage application, Wagner pot (Table 18, symbol H); assay type: in vivo, barnyard grass (Echinochloa crus-galli)
In short: as §4

barnyard grass [15] = assay: Test Example 5: herbicidal effect by foliage application, plastic box (Table 20, symbol H); assay type: in vivo, barnyard grass (Echinochloa crus-galli); settings: foliage application, 3 weeks after application
In short: as §2

velvetleaf [16] = assay: Test Example 4: herbicidal effect by soil treatment (Table 19, symbol M); assay type: in vivo, velvetleaf (Abutilon theophrasti)
In short: as §3

Japanese bulrush = assay: Test Example 1: herbicidal activity, application before weed generation under submerged conditions (Table 16, symbol B); assay type: in vivo, Japanese bulrush (Schoenoplectus juncoides)
In short: as §1

chickweed = assay: Test Example 4: herbicidal effect by soil treatment (Table 19, symbol P); assay type: in vivo, common chickweed (Stellaria media)
In short: as §3

windgrass [17] = assay: Test Example 5: herbicidal effect by foliage application, plastic box (Table 20, symbol L); assay type: in vivo, windgrass (Apera spica-venti); settings: foliage application, 3 weeks after application
In short: as §2

lambsquarters [18] = assay: Test Example 4: herbicidal effect by soil treatment (Table 19, symbol O); assay type: in vivo, lambsquarters (Chenopodium album)
In short: as §3

lambsquarters [19] = assay: Test Example 5: herbicidal effect by foliage application, plastic box (Table 20, symbol O); assay type: in vivo, lambsquarters (Chenopodium album); settings: foliage application, 3 weeks after application
In short: as §2

Italian ryegrass [20] = assay: Test Example 4: herbicidal effect by soil treatment (Table 19, symbol K); assay type: in vivo, Italian ryegrass (Lolium multiflorum)
In short: as §3

blackgrass [21] = assay: Test Example 5: herbicidal effect by foliage application, plastic box (Table 20, symbol J); assay type: in vivo, blackgrass (Alopecurus myosuroides); settings: foliage application, 3 weeks after application
In short: as §2

Compound: CC=CCOc1ccc(-c2sc3ccccc3c2-c2c(O)c(C)nn(C)c2=O)cc1 [1-211]
- Herbicidal effect on A: late watergrass (grade 0-5) (late watergrass; 80 g/ha applied herbicide): 5 (Herbicidal rate of 90% or more (almost completely withered))
- effect on Italian ryegrass (K) (Italian ryegrass [1]; 80 g/ha): 3 (Herbicidal rate of 40% or more and less than 70%)
- I: wild oat, herbicidal effect rating (wild oat [2]; AAH 80 g/ha): 0 (Herbicidal rate of 5% or less (almost no effect))
- herbicidal effect on D (Chinese sprangletop), rating 0-5 (Chinese sprangletop; 80 g/ha): 4 (Herbicidal rate of 70% or more and less than 90%)
- R: persian speedwell, herbicidal effect rating (persian speedwell [3]; AAH 80 g/ha): 0 (Herbicidal rate of 5% or less (almost no effect))
- F: southern crabgrass, herbicidal effect rating (southern crabgrass [4]; AAH 80 g/ha): 0 (Herbicidal rate of 5% or less (almost no effect))
- effect on velvetleaf (M) (velvetleaf [5]; 80 g/ha): 4 (Herbicidal rate of 70% or more and less than 90%)
- N: redroot pigweed, herbicidal effect rating (redroot pigweed; AAH 80 g/ha): 3 (Herbicidal rate of 40% or more and less than 70%)
- G: green foxtail, herbicidal effect rating (green foxtail [6]; AAH 80 g/ha): 0 (Herbicidal rate of 5% or less (almost no effect))
- effect on green foxtail (G) (green foxtail [7]; 80 g/ha): 5 (Herbicidal rate of 90% or more (almost completely withered))
- herbicidal effect on E (rice flat sedge), rating 0-5 (rice flat sedge; 80 g/ha): 4 (Herbicidal rate of 70% or more and less than 90%)
- H: barnyard grass, herbicidal effect rating (barnyard grass [8]; AAH 80 g/ha): 0 (Herbicidal rate of 5% or less (almost no effect))
- L: windgrass, herbicidal effect rating (windgrass [9]; AAH 80 g/ha): 0 (Herbicidal rate of 5% or less (almost no effect))
- effect on southern crabgrass (F) (southern crabgrass [10]; 80 g/ha): 3 (Herbicidal rate of 40% or more and less than 70%)
- J: blackgrass, herbicidal effect rating (blackgrass [11]; AAH 80 g/ha): 0 (Herbicidal rate of 5% or less (almost no effect))
- effect on persian speedwell (R) (persian speedwell [12]; 80 g/ha): 5 (Herbicidal rate of 90% or more (almost completely withered))
- effect on wild oat (I) (wild oat [13]; 80 g/ha): 0 (Herbicidal rate of 5% or less (almost no effect))
- Herbicidal effect on C: oval-leafed pondweed (grade 0-5) (oval-leafed pondweed; 80 g/ha applied herbicide): 3 (Herbicidal rate of 40% or more and less than 70%)
- herbicidal effect on H (barnyard grass), rating 0-5 (barnyard grass [14]; 80 g/ha): 4 (Herbicidal rate of 70% or more and less than 90%)
- effect on barnyard grass (H) (barnyard grass [15]; 80 g/ha): 3 (Herbicidal rate of 40% or more and less than 70%)
- M: velvetleaf, herbicidal effect rating (velvetleaf [16]; AAH 80 g/ha): 0 (Herbicidal rate of 5% or less (almost no effect))
- Herbicidal effect on B: Japanese bulrush (grade 0-5) (Japanese bulrush; 80 g/ha applied herbicide): 3 (Herbicidal rate of 40% or more and less than 70%)
- P: chickweed, herbicidal effect rating (chickweed; AAH 80 g/ha): 0 (Herbicidal rate of 5% or less (almost no effect))
- effect on windgrass (L) (windgrass [17]; 80 g/ha): 0 (Herbicidal rate of 5% or less (almost no effect))
- O: lambsquarters, herbicidal effect rating (lambsquarters [18]; AAH 80 g/ha): 0 (Herbicidal rate of 5% or less (almost no effect))
- effect on lambsquarters (O) (lambsquarters [19]; 80 g/ha): 5 (Herbicidal rate of 90% or more (almost completely withered))
- K: Italian ryegrass, herbicidal effect rating (Italian ryegrass [20]; AAH 80 g/ha): 0 (Herbicidal rate of 5% or less (almost no effect))
- effect on blackgrass (J) (blackgrass [21]; 80 g/ha): 2 (Herbicidal rate of 20% or more and less than 40%)

Compound: Cc1nn(C)c(=O)c(-c2c(-c3ccc(F)cc3)sc3ccc(F)cc23)c1OC(=O)N1CCOCC1 [2-007]
- Herbicidal effect on A: late watergrass (grade 0-5) (late watergrass; 320 g/ha applied herbicide): 2 (Herbicidal rate of 20% or more and less than 40%)
- effect on Italian ryegrass (K) (Italian ryegrass [1]; 320 g/ha): 0 (Herbicidal rate of 5% or less (almost no effect))
- herbicidal effect rating, I: wild oat (wild oat [2]; 320 g/ha): 0 (Herbicidal rate of 5% or less (almost no effect))
- herbicidal effect on D (Chinese sprangletop), rating 0-5 (Chinese sprangletop; 320 g/ha): 3 (Herbicidal rate of 40% or more and less than 70%)
- herbicidal effect rating, R: persian speedwell (persian speedwell [3]; 320 g/ha): 0 (Herbicidal rate of 5% or less (almost no effect))
- herbicidal effect rating, F: southern crabgrass (southern crabgrass [4]; 320 g/ha): 1 (Herbicidal rate of 5% or more and less than 20%)
- effect on velvetleaf (M) (velvetleaf [5]; 320 g/ha): 0 (Herbicidal rate of 5% or less (almost no effect))
- herbicidal effect rating, N: redroot pigweed (redroot pigweed; 320 g/ha): 2 (Herbicidal rate of 20% or more and less than 40%)
- herbicidal effect rating, G: green foxtail (green foxtail [6]; 320 g/ha): 2 (Herbicidal rate of 20% or more and less than 40%)
- effect on green foxtail (G) (green foxtail [7]; 320 g/ha): 0 (Herbicidal rate of 5% or less (almost no effect))
- herbicidal effect on E (rice flat sedge), rating 0-5 (rice flat sedge; 320 g/ha): 3 (Herbicidal rate of 40% or more and less than 70%)
- herbicidal effect rating, H: barnyard grass (barnyard grass [8]; 320 g/ha): 0 (Herbicidal rate of 5% or less (almost no effect))
- herbicidal effect rating, L: windgrass (windgrass [9]; 320 g/ha): 0 (Herbicidal rate of 5% or less (almost no effect))
- effect on southern crabgrass (F) (southern crabgrass [10]; 320 g/ha): 0 (Herbicidal rate of 5% or less (almost no effect))
- herbicidal effect rating, J: blackgrass (blackgrass [11]; 320 g/ha): 0 (Herbicidal rate of 5% or less (almost no effect))
- effect on persian speedwell (R) (persian speedwell [12]; 320 g/ha): 1 (Herbicidal rate of 5% or more and less than 20%)
- effect on wild oat (I) (wild oat [13]; 320 g/ha): 0 (Herbicidal rate of 5% or less (almost no effect))
- Herbicidal effect on C: oval-leafed pondweed (grade 0-5) (oval-leafed pondweed; 320 g/ha applied herbicide): 0 (Herbicidal rate of 5% or less (almost no effect))
- herbicidal effect on H (barnyard grass), rating 0-5 (barnyard grass [14]; 320 g/ha): 1 (Herbicidal rate of 5% or more and less than 20%)
- effect on barnyard grass (H) (barnyard grass [15]; 320 g/ha): 0 (Herbicidal rate of 5% or less (almost no effect))
- herbicidal effect rating, M: velvetleaf (velvetleaf [16]; 320 g/ha): 0 (Herbicidal rate of 5% or less (almost no effect))
- Herbicidal effect on B: Japanese bulrush (grade 0-5) (Japanese bulrush; 320 g/ha applied herbicide): 0 (Herbicidal rate of 5% or less (almost no effect))
- herbicidal effect rating, P: chickweed (chickweed; 320 g/ha): 0 (Herbicidal rate of 5% or less (almost no effect))
- effect on windgrass (L) (windgrass [17]; 320 g/ha): 0 (Herbicidal rate of 5% or less (almost no effect))
- herbicidal effect rating, O: lambsquarters (lambsquarters [18]; 320 g/ha): 0 (Herbicidal rate of 5% or less (almost no effect))
- effect on lambsquarters (O) (lambsquarters [19]; 320 g/ha): 0 (Herbicidal rate of 5% or less (almost no effect))
- herbicidal effect rating, K: Italian ryegrass (Italian ryegrass [20]; 320 g/ha): 0 (Herbicidal rate of 5% or less (almost no effect))
- effect on blackgrass (J) (blackgrass [21]; 320 g/ha): 0 (Herbicidal rate of 5% or less (almost no effect))
